Patent US6406718B1, “Orthorhombic crystalline form of fluticasone propionate and pharmaceutical compositions thereof” (SmithKline Beecham Corporation, priority 1996, dated 2002)

Columns and labels:
Assay type in all cases: physicochemical
[1] = Dynamic bulk density (fluidisability)
Procedure: The dynamic bulk density (W) is indicative of a substance's fluidisability and is defined as: [formula]
where P is the packed bulk density (g cm^−3), A is the aerated bulk density (g cm^−3) and C is the compressibility (%) where C is calculated by the equation: [formula]
Clearly, a low figure for W corresponds to a high degree of fluidisability.
The dynamic bulk density for conventionally crystallised fluticasone propionate (micronised and non-micronised) and fluticasone propionate of the present invention are shown in Table 7.

[2] = Static charge test (drug retained on vial walls after rolling); settings: after rolling drug in the vial for 2 minutes
Procedure: A simple test was devised to ascertain a relative static charge based on the quantity of drug remaining coated to the walls of a vial after rolling a predetermined quantity of drug in the vial for 2 minutes. The greater the amount of the drug remaining on the vial, the higher the relative static charge associated with the drug substance.

[3] = Particle size distribution by laser diffraction (Malvern Mastersizer)
Procedure: The data for four samples of fluticasone propionate of the present invention, produced using the method and apparatus described herein, are presented in Table 2 below. The particle size was determined by laser diffraction (Malvern Mastersizer).
The particle size was determined by laser diffraction (Malvern Mastersizer).

[4] = Water content of crystalline forms
Excerpt: The water content of the two crystalline forms of fluticasone propionate produced with the apparatus described herein has also been determined, and compared with that of conventionally crystallised and micronised fluticasone propionate.

[5] = Solvent content test by NMR
Procedure: The solvent content of fluticasone propionate of the present invention was investigated by Nuclear Magnetic Resonance (NMR) and compared to that of conventional crystallised fluticasone propionate. Each sample was tested for acetone content. (The conventionally crystallised fluticasone propionate was crystallised from acetone.) In addition, sample 5 was crystallised from methanol and therefore tested for methanol.

[6] = Stability of Form 2 to conversion to Form 1 by XRPD; settings: after 62 weeks at ambient temperature and humidity
Procedure: X-ray powder diffraction (XRPD) patterns were generated using either a Siemens D 5000 or Philips X'pert MPD. The powders were scanned over a 2θ angle range of either 1.5° to 60°, or 0° to 35°, with a 0.02-0.050 step at 3-15 seconds count time using CuKα radiation. The Siemens D5000 measures intensity as counts per second and the Philips X'pert MPD measures intensity as counts.

[7] = Particle shape by scanning electron microscopy
Procedure: The particle shape was determined by scanning electron microscopy. Data for three samples of fluticasone propionate of the present invention, produced using the method and apparatus described herein, are presented in FIGS. 5 to 7.

[8] = drug material used in Inhaler Type A for cascade impaction
[9] = laser diffraction (Malvern Mastersizer)

**Q.** Which “Dynamic Bulk Density (W)” value [1] does the source give for “fluticasone propionate [Conventionally crystallised fluticasone propionate (micronis] [reference compound]” here?
**A.** The value was 0.21 g cm^−3.

**Q.** And the “% Drug retained on vial” value [2]?
**A.** The value was 4.5%.

**Q.** And the “Mean particle size” value [3, 8]?
**A.** The value was 1.8 microns.

**Q.** What about the “% <5 μm” value [3, 9] of the same substance?
**A.** The value was over 90%.

**Q.** What about the “% <10 μm” value [3, 9] of the same substance?
**A.** The value was over 95%.

**Q.** What about the Mean particle size [3, 9] of the same substance?
**A.** The Mean particle size was 1-3 μm.

**Q.** What about the “Uniformity Index” value [3, 9] of the same substance?
**A.** Its value is 15.

**Q.** What about the Water content [4] of the same substance?
**A.** Its Water content is under 0.1 % w/w.

**Q.** And the “Acetone Content” value [5]?
**A.** The value was “typically 0.7 % w/w”.

**Q.** For “fluticasone propionate [Conventionally crystallised fluticasone propionate (non-micr] [reference compound]”, which “Dynamic Bulk Density (W)” value [1] is on record?
**A.** Its value is 0.21 g cm^−3.

**Q.** For “fluticasone propionate [Form 1 fluticasone propionate prepared as described herein]”, which Water content [4] is on record?
**A.** Its Water content is under 0.1 % w/w.

**Q.** What does the source list for “fluticasone propionate [Form 2 fluticasone propionate prepared as described herein]”?
**A.** Water content [4]: >0.3 % w/w; Conversion of Form 2 to Form 1 [6]: no conversion was seen

**Q.** For fluticasone propionate [Sample 1], which “% <5 μm” value [3, 9] is on record?
**A.** Its value is 48%.

**Q.** What about the “% <10 μm” value [3, 9] of the same substance?
**A.** The value was 81%.

**Q.** And the Mean particle size [3, 9]?
**A.** Its Mean particle size is 5.2 μm.

**Q.** What about the “Uniformity Index” value [3, 9] of the same substance?
**A.** The value was 12.

**Q.** With fluticasone propionate [Sample 2] as the substance, how does the “% <5 μm” value [3, 9] read?
**A.** Its value is 20%.

**Q.** And the “% <10 μm” value [3, 9]?
**A.** The value was 48%.

**Q.** What about the Mean particle size [3, 9] of the same substance?
**A.** The Mean particle size was 10.4 μm.

**Q.** And the “Uniformity Index” value [3, 9]?
**A.** Its value is 13.

**Q.** Which “Dynamic Bulk Density (W)” value [1] does the source give for fluticasone propionate [Sample 3] here?
**A.** The value was 0.17 g cm^−3.

**Q.** And the “% <5 μm” value [3, 9]?
**A.** The value was 6%.

**Q.** And the “% <10 μm” value [3, 9]?
**A.** The value was 13%.

**Q.** What about the Mean particle size [3, 9] of the same substance?
**A.** Its Mean particle size is 31.0 μm.

**Q.** What about the “Uniformity Index” value [3, 9] of the same substance?
**A.** Its value is 12.

**Q.** With fluticasone propionate [Sample 4] as the substance, how does the “% <5 μm” value [3, 9] read?
**A.** Its value is 68%.

**Q.** What about the “% <10 μm” value [3, 9] of the same substance?
**A.** Its value is 83%.

**Q.** And the Mean particle size [3, 9]?
**A.** The Mean particle size was 2.8 μm.

**Q.** What about the “Uniformity Index” value [3, 9] of the same substance?
**A.** The value was 4.

**Q.** Which Particle shape [7] does the source give for fluticasone propionate [Sample 5] here?
**A.** Its Particle shape is “acicular”.

**Q.** What about the “Acetone Content” value [5] of the same substance?
**A.** Its value is “Not Detected”.

**Q.** What about the “Methanol Content” value [5] of the same substance?
**A.** The value was “Not Detected”.

**Q.** For fluticasone propionate [Sample 6], which “% <5 μm” value [3, 9] is on record?
**A.** Its value is 24%.

**Q.** What about the “% <10 μm” value [3, 9] of the same substance?
**A.** The value was 51%.

**Q.** And the Mean particle size [3, 9]?
**A.** The Mean particle size was 9.7 μm.

**Q.** And the “Uniformity Index” value [3, 9]?
**A.** The value was 10.

**Q.** And the Particle shape [7]?
**A.** Its Particle shape is “flake-like”.

**Q.** For fluticasone propionate [Sample 7], which Particle shape [7] is on record?
**A.** The Particle shape was “equant”.

**Q.** Which “% <5 μm” value [3, 9] does the source give for fluticasone propionate [Sample 8] here?
**A.** The value was 23%.

**Q.** What about the “% <10 μm” value [3, 9] of the same substance?
**A.** Its value is 53%.

**Q.** And the Mean particle size [3, 9]?
**A.** The Mean particle size was 9.4 μm.

**Q.** And the “Uniformity Index” value [3, 9]?
**A.** Its value is 11.

**Q.** What about the “Acetone Content” value [5] of the same substance?
**A.** The value was “Not Detected”.

**Q.** For fluticasone propionate [Sample 9], which “% <5 μm” value [3, 9] is on record?
**A.** Its value is 23%.

**Q.** What about the “% <10 μm” value [3, 9] of the same substance?
**A.** Its value is 52%.

**Q.** And the Mean particle size [3, 9]?
**A.** Its Mean particle size is 9.6 μm.

**Q.** What about the “Uniformity Index” value [3, 9] of the same substance?
**A.** Its value is 12.

**Q.** For fluticasone propionate [Sample 12], which “Dynamic Bulk Density (W)” value [1] is on record?
**A.** Its value is 0.05 g cm^−3.

**Q.** With fluticasone propionate [Sample 13] as the substance, how does the “Dynamic Bulk Density (W)” value [1] read?
**A.** Its value is 0.06 g cm^−3.

**Q.** With fluticasone propionate [Sample 14] as the substance, how does the “% Drug retained on vial” value [2] read?
**A.** Its value is 3.8%.

**Q.** What does the source list for fluticasone propionate [Sample 15]?
**A.** % Drug retained on vial [2]: 4.2%; Acetone Content [5]: Not Detected

**Q.** Which “% Drug retained on vial” value [2] does the source give for fluticasone propionate [Sample 16] here?
**A.** Its value is 7.6%.

**Q.** Which “% Drug retained on vial” value [2] does the source give for fluticasone propionate [Sample 17] here?
**A.** Its value is 8.6%.

**Q.** With fluticasone propionate [Sample 19] as the substance, how does the “Mean particle size” value [3, 8] read?
**A.** The value was 4.8 microns.
